Legend:
P388/ADR = assay: In vivo activity against drug resistant tumour P388/ADR; design: species or system mouse; conditions: optimum dose 10.0 mg/kg
Description: (§1) CD2-F1 mice, of the same sex, weighing within a 3 gram range surrounding 20 g, are used for this test. Control and test animals are injected intraperitoneally with a suspension of 10^6 viable P388/O tumour cells on day 0. In each test several dose levels which bracket the LD20 for the compound are evaluated; each dose level group contains 6 animals. The test compounds are prepared either in physiologic saline containing 0.05% Tween 80 or distilled water containing 5% dextrose and are administered intraperitoneally on days 1,5 and 9 relative to tumour implant. Doses are on a mg/kg basis according to individual animals' body weights. The day of death for each animal is recorded and the median day of death identified for each group. The difference between the median survival time for treated and control groups is expressed as a percentage increase in life span (% ILS).
(§2) E. Activity Against Drug-Resistant Tumours
(§3) Using a similar procedure to the Lymphocytic Leukaemia P388/O test, the compound of Example 1 was evaluated against P388/O tumours which had been made resistant to the following standard, clinically used anti-tumour agents: […]

P388/5FU = assay: In vivo activity against drug resistant tumour P388/5FU; design: species or system mouse; conditions: optimum dose 10.0 mg/kg
Description: as §1, §2, §3

B16 = assay: In vivo activity against murine tumour B16; design: species or system mouse
Description: as §1
G. In vivo activity of the compound of Example 1 against murine tumours
Using a similar procedure to the Lymphocytic Leukaemia P388/O test the compound of Example 1 was evaluated against the murine tumours B16, L1210 and M5076. A suspension of 10^6 tumour cells is implanted intraperitoneally into control and test animals on day zero. B16 tumour cells are administered intraperitoneally as a 1:10 Brei of cells on day zero. […] The day of death for each animal is recorded and the %ILS (percentage increase in life-span) calculated.

P388/AMSA = assay: In vivo activity against drug resistant tumour P388/AMSA; design: species or system mouse; conditions: optimum dose 5.0 mg/kg
[1] = test system: WiDr human colon adenocarcinoma cells; assay: In vitro activity against human tumour cell line WiDr (proliferation); type: cell-based; conditions: 96 h, MTT, read-out: IC50
Description: (§4) Cells from the human tumour cell lines DLD-1, HCT-116, WiDr and A549 are exposed to serially diluted concentrations of test compounds over a 96 hour period in culture. The ability of such cells to proliferate over the test period is determined.
(§5) Cells in log growth are plated into 96 well multiwell tissue culture dishes in 100 μl/well of RPMI 1640 culture medium supplemented with 10% foetal calf serum, antibiotics and test compound. All compounds are formulated initially at appropriate concentrations in DMSO, the final concentrations in this solvent being twenty times that required in the plate. A final 1 in 10 dilution in complete medium is then made before adding 100 μl to each well of the plate. All compounds are evaluated at concentrations ranging serially in four fold decrements from a top concentration some four fold greater than that already known to inhibit the proliferation of cells from the mouse lymphoid neoplasm, P388D1 by about 80 to 90 percent in a primary proliferative assay.
(§6) After 96 hours the proliferation of cells exposed to test compound is compared with control untreated cells by one of two methods:
(§7) b) 20 μl of MTT (5 mg/ml in PBS) is added to each well. After an incubation period of 4 hours the medium from each well is aspirated and replaced with 200 μl DMSO to dissolve the formazan crystals formed. Absorbances are read by an ELISA plate spectrophotometer at a wavelength of 540 nm. The IC50 is defined as that concentration of drug which decreases absorbance to 50% of that in control (drug-free) cultures. This method is used for the WiDr, HCT-116 and A549 cell lines.

LD20 (Mouse) = type: in vivo; conditions: i.p. days 1, 5 and 9, CD2-F1 mice, observed up to 14 days
[2] = test system: A549 human lung carcinoma cells; assay: In vitro activity against human tumour cell line A549 (proliferation); type: cell-based; conditions: A549, 96 h, MTT, read-out: IC50
Description: as §4, §5, §6, §7

P388/CPA = assay: In vivo activity against drug resistant tumour P388/CPA; design: species or system mouse; conditions: optimum dose 12.5 mg/kg
P388/ActD = assay: In vivo activity against drug resistant tumour P388/ActD; design: species or system mouse; conditions: optimum dose 12.5 mg/kg
Description: as §1, §2, §3

In the case of `COC(=O)Nc1cn2nc(OCc3cc(OC)c(OC)c(OC)c3)ccc2n1` [Example 1, Methyl N-[6-(3,4,5-trimethoxybenzyloxy)imidazo[1,2-b]pyridazin-2-yl]carbamate], the “60 Day Survivors” value (P388/ADR) is reported as 0/6, the “% ILS” value (P388/ADR) is reported as “+90%” and the “60 Day Survivors” value (P388/5FU) is reported as 0/6. For the same molecule, the “% ILS” value (P388/5FU) was “+92%”, the “Mean % ILS (±SEM)” value (B16; 5 mg/kg i.p. days 1, 5 and 9, 3 expts) was 69 (±4) % and the “activity in vivo against B16 melanoma” value (B16; in words) was “good activity”. The “60 Day Survivors” value (P388/AMSA; (day 31)) was 4/6, the “% ILS” value (P388/AMSA) was “+134%” and the IC50 [1] was 30 nM. The LD50 (LD20 (Mouse)) was 20 to 30 mg/kg, the IC50 [2] was 24 nM and the “60 Day Survivors” value (P388/CPA) was 1/6. For the same molecule, the “% ILS” value (P388/CPA) was “+150%”, the “60 Day Survivors” value (P388/ActD) was 1/6 and the “% ILS” value (P388/ActD) was “+109%”.

Source: US5380759A, “Methyl N-[6-(3,4,5-trimethoxybenzloxy)imidazo[1,2-b]pyridazin-2-zyl]carbamate used to treat leukemia” (priority 1987, dated 1995)
